Patent US8455665B2, “3-phenoxymethylpyrrolidine compounds” (Theravance, Inc., priority 2009, dated 2013)
Like-named read-outs stand apart in the source and are kept apart here.

How the values were obtained:
[1] = target: SERT (Homo sapiens, UniProt P31645); assay: fluorescence-based serotonin uptake assay (Tsuruda et al. 2010); format: cell-based
[2] = target: NET (Homo sapiens, UniProt P23975); assay: fluorescence-based norepinephrine uptake assay (Tsuruda et al. 2010); format: cell-based
[3] = serotonin reuptake inhibition, fluorescence-based assay (data indicated by an asterisk), read-out: SERT pIC50 (converted)
[4] = norepinephrine reuptake inhibition, fluorescence-based assay (data indicated by an asterisk), read-out: NET pIC50 (converted)

Sequence of SERT (P31645 whole entry, species assumed): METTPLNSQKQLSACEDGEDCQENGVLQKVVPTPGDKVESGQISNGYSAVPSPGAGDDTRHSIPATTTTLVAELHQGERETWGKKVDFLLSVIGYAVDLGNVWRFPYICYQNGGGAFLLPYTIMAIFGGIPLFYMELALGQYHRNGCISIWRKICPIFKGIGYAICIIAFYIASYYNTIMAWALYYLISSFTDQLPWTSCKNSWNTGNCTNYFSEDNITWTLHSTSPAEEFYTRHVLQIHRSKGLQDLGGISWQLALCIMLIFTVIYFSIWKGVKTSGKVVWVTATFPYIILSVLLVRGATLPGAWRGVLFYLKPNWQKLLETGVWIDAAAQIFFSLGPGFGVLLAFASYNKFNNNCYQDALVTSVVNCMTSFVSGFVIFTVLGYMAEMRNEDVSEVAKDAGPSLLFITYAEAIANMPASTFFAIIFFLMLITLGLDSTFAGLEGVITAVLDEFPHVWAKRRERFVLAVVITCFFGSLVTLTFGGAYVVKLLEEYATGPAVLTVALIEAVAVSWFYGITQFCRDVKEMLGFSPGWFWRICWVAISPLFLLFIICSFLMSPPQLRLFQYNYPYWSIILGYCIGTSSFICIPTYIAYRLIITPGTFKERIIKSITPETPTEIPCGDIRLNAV
Sequence of NET (P23975 whole entry): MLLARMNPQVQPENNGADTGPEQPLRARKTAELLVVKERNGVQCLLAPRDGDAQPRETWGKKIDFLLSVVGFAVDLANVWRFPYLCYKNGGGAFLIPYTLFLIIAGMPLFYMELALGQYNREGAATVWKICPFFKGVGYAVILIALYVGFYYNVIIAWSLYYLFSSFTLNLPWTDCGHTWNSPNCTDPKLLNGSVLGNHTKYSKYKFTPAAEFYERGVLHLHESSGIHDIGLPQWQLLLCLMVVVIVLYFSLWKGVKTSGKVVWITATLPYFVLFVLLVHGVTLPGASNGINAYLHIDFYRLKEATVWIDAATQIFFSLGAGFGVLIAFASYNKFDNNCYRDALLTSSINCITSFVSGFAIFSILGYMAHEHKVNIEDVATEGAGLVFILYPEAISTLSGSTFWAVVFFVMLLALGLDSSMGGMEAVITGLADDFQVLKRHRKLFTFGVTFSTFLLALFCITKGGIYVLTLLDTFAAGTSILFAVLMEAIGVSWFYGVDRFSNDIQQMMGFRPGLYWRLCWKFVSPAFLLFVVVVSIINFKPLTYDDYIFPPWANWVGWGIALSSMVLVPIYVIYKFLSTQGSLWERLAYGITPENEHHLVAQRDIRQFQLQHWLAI

Row | SMILES | IC50 [1, 3] [nM] | IC50 [2, 4] [nM] | IC50 [1] [nM] | IC50 [2] [nM]
1 | Cc1cc(Cl)ccc1O[C@H](CO)[C@@H]1CCNC1 (stereo in doubt) [Example 1, (R)-2-(4-Chloro-2-methylphenoxy)-2-(S)-pyrrolidin-3-yl-ethanol] | ≤ 10 | ≤ 10 |  | 
2 | OC[C@@H](Oc1cccc(Cl)c1Cl)[C@@H]1CCNC1 (stereo in doubt) [Example 2-2, (R)-2-(2,3-Dichlorophenoxy)-2-(S)-pyrrolidin-3-yl-ethanol] | ≤ 100 | ≤ 10 |  | 
3 | CCOC[C@@H](Oc1ccc(C#N)cc1Cl)[C@@H]1CCNC1 (stereo in doubt) [Example 7-20, 3-Chloro-4-((R)-2-ethoxy-1-(S)-pyrrolidin-3-ylethoxy)benzonitrile] | ≤ 10 | ≤ 100 |  | 
4 | CCOC[C@@H](Oc1ccc(C#N)c(Cl)c1)[C@@H]1CCNC1 (stereo in doubt) [Example 7-25, 2-Chloro-4-((R)-2-ethoxy-1-(S)-pyrrolidin-3-ylethoxy)benzonitrile] |  |  | ≤ 10 | ≤ 100
5 | CCOC[C@H](Oc1ccc(Cl)cc1Cl)[C@H]1CCNC1 [Example 6, (S)-3-[(R)-1-(2,4-Dichlorophenoxy)-2-ethoxyethyl]pyrrolidine] | ≤ 10 | ≤ 10 |  | 
6 | CCOC[C@H](Oc1ccccc1Cl)[C@H]1CCNC1 [Example 7-1, (S)-3-[(R)-1-(2-Chlorophenoxy)-2-ethoxyethyl]pyrrolidine] | ≤ 100 | ≤ 10 |  | 
7 | CCOC[C@H](Oc1cccc(C(F)(F)F)c1)[C@H]1CCNC1 [Example 7-2, (S)-3-[(R)-2-Ethoxy-1-(3-trifluoromethylphenoxy)ethyl]pyrrolidine] | ≤ 100 | ≤ 100 |  | 
8 | CCOC[C@@H](Oc1cccc(C(F)(F)F)c1)[C@H]1CCNC1 [Example 7-3, (S)-3-[(S)-2-Ethoxy-1-(3-trifluoromethylphenoxy)ethyl]pyrrolidine] | ≤ 100 | ≤ 100 |  | 
9 | CCOC[C@H](Oc1ccc(Cl)cc1)[C@H]1CCNC1 [Example 7-4, (S)-3-[(R)-1-(4-Chlorophenoxy)-2-ethoxyethyl]pyrrolidine] | ≤ 10 | ≤ 10 |  | 
10 | CCOC[C@H](Oc1ccc(F)cc1)[C@H]1CCNC1 [Example 7-5, (S)-3-[(R)-2-Ethoxy-1-(4-fluorophenoxy)ethyl]pyrrolidine] | ≤ 100 | ≤ 100 |  | 
11 | CCOC[C@H](Oc1ccc(C(F)(F)F)cc1)[C@H]1CCNC1 [Example 7-6, (S)-3-[(R)-2-Ethoxy-1-(4-trifluoromethylphenoxy)ethyl]pyrrolidine] | ≤ 10 | ≤ 100 |  | 
12 | CCOC[C@H](Oc1cccc(Cl)c1Cl)[C@H]1CCNC1 [Example 7-7, (S)-3-[(R)-1-(2,3-Dichlorophenoxy)-2-ethoxyethyl]pyrrolidine] | ≤ 10 | ≤ 10 |  | 
13 | CCOC[C@H](Oc1cccc(F)c1Cl)[C@H]1CCNC1 [Example 7-9, (S)-3-[(R)-1-(2-Chloro-3-fluorophenoxy)-2-ethoxyethyl]pyrrolidine] | ≤ 100 | ≤ 10 |  | 
14 | CCOC[C@@H](Oc1cccc(F)c1Cl)[C@H]1CCNC1 [Example 7-10, (S)-3-[(S)-1-(2-Chloro-3-fluorophenoxy)-2-ethoxyethyl]pyrrolidine] | ≤ 10 | ≤ 10 |  | 
15 | CCOC[C@H](Oc1cccc(F)c1F)[C@H]1CCNC1 [Example 7-11, (S)-3-[(R)-1-(2,3-Difluorophenoxy)-2-ethoxyethyl]pyrrolidine] | ≤ 100 | ≤ 10 |  | 
16 | CCOC[C@H](Oc1cccc(C(F)(F)F)c1F)[C@H]1CCNC1 [Example 7-12, (S)-3-[(R)-2-Ethoxy-1-(2-fluoro-3-trifluoromethylphenoxy)ethyl]pyrrolidine] | ≤ 100 | ≤ 100 |  | 
17 | CCOC[C@H](Oc1cccc(Cl)c1C)[C@H]1CCNC1 [Example 7-13, (S)-3-[(R)-1-(3-Chloro-2-methylphenoxy)-2-ethoxyethyl]pyrrolidine] | ≤ 10 | ≤ 10 |  | 
18 | CCOC[C@@H](Oc1cccc(Cl)c1C)[C@H]1CCNC1 [Example 7-14, (S)-3-[(S)-1-(3-Chloro-2-methylphenoxy)-2-ethoxyethyl]pyrrolidine] | ≤ 10 | ≤ 10 |  | 
19 | CCOC[C@H](Oc1cccc(Cl)c1C(F)(F)F)[C@H]1CCNC1 [Example 7-15, (S)-3-[(R)-1-(3-Chloro-2-trifluoromethylphenoxy)-2-ethoxyethyl]pyrrolidine] | ≤ 10 | ≤ 10 |  | 
20 | CCOC[C@@H](Oc1cccc(Cl)c1C(F)(F)F)[C@H]1CCNC1 [Example 7-16, (S)-3-[(S)-1-(3-Chloro-2-trifluoromethylphenoxy)-2-ethoxyethyl]pyrrolidine] | ≤ 10 | ≤ 100 |  | 
21 | CCOC[C@@H](Oc1ccc(Cl)cc1Cl)[C@H]1CCNC1 [Example 7-17, (S)-3-[(S)-1-(2,4-Dichlorophenoxy)-2-ethoxyethyl]pyrrolidine] | ≤ 10 | ≤ 100 |  | 
22 | CCOC[C@H](Oc1ccc(F)cc1Cl)[C@H]1CCNC1 [Example 7-18, (S)-3-[(R)-1-(2-Chloro-4-fluorophenoxy)-2-ethoxyethyl]pyrrolidine] | ≤ 100 | ≤ 10 |  | 

Row | SMILES | IC50 [1, 3] [nM] | IC50 [2, 4] [nM] | IC50 [1] [nM] | IC50 [2] [nM]
23 | CCOC[C@H](Oc1ccc(C(F)(F)F)cc1Cl)[C@H]1CCNC1 [Example 7-19, (S)-3-[(R)-1-(2-Chloro-4-trifluoromethylphenoxy)-2-ethoxyethyl]pyrrolidine] | ≤ 10 | ≤ 10 |  | 
24 | CCOC[C@H](Oc1ccc(Cl)cc1F)[C@H]1CCNC1 [Example 7-21, (S)-3-[(R)-1-(4-Chloro-2-fluorophenoxy)-2-ethoxyethyl]pyrrolidine] | ≤ 10 | ≤ 10 |  | 
25 | CCOC[C@H](Oc1ccc(Cl)cc1C)[C@H]1CCNC1 [Example 7-22, (S)-3-[(R)-1-(4-Chloro-2-methylphenoxy)-2-ethoxyethyl]pyrrolidine] | ≤ 10 | ≤ 10 |  | 
26 | CCOC[C@H](Oc1ccc(Cl)cc1C(F)(F)F)[C@H]1CCNC1 [Example 7-23, (S)-3-[(R)-1-(4-Chloro-2-trifluoromethylphenoxy)-2-ethoxyethyl]pyrrolidine] | ≤ 10 | ≤ 10 |  | 
27 | CCOC[C@H](Oc1ccc(Cl)c(Cl)c1)[C@H]1CCNC1 [Example 7-24, (S)-3-[(R)-1-(3,4-Dichlorophenoxy)-2-ethoxyethyl]pyrrolidine] | ≤ 10 | ≤ 100 |  | 
28 | CCOC[C@H](Oc1ccc(Cl)c(F)c1)[C@H]1CCNC1 [Example 7-26, (S)-3-[(R)-1-(4-Chloro-3-fluorophenoxy)-2-ethoxyethyl]pyrrolidine] | ≤ 10 | ≤ 10 |  | 
29 | CCOC[C@H](Oc1cc(Cl)cc(Cl)c1)[C@H]1CCNC1 [Example 7-27, (S)-3-[(R)-1-(3,5-Dichlorophenoxy)-2-ethoxyethyl]pyrrolidine] | ≤ 100 | ≤ 10 |  | 
30 | CCOC[C@H](Oc1cc(F)cc(Cl)c1)[C@H]1CCNC1 [Example 7-28, (S)-3-[(R)-1-(3-Chloro-5-fluorophenoxy)-2-ethoxyethyl]pyrrolidine] | ≤ 100 | ≤ 10 |  | 
31 | CCOC[C@H](Oc1ccc(Cl)c(Cl)c1F)[C@H]1CCNC1 [Example 7-29, (S)-3-[(R)-1-(3,4-Dichloro-2-fluorophenoxy)-2-ethoxyethyl]pyrrolidine] | ≤ 10 | ≤ 10 |  | 
32 | CCOC[C@H](Oc1c(F)ccc(F)c1Cl)[C@H]1CCNC1 [Example 7-30, (S)-3-[(R)-1-(2-Chloro-3,6-difluorophenoxy)-2-ethoxyethyl]pyrrolidine] | ≤ 100 | ≤ 10 |  | 
33 | CCOC[C@H](Oc1c(Cl)cc(F)cc1Cl)[C@H]1CCNC1 [Example 7-31, (S)-3-[(R)-1-(2,6-Dichloro-4-fluorophenoxy)-2-ethoxyethyl]pyrrolidine] | ≤ 100 | ≤ 10 |  | 
34 | CCOC[C@H](Oc1c(Cl)ccc(Cl)c1F)[C@H]1CCNC1 [Example 7-32, (S)-3-[(R)-1-(3,6-Dichloro-2-fluorophenoxy)-2-ethoxyethyl]pyrrolidine] | ≤ 100 | ≤ 10 |  | 
35 | CC(C)OC[C@H](Oc1ccc(Cl)cc1Cl)[C@H]1CCNC1 [Example 8, (S)-3-[(R)-1-(2,4-Dichlorophenoxy)-2-isopropoxyethyl]pyrrolidine] | ≤ 10 | ≤ 10 |  | 
36 | CC(C)OC[C@@H](Oc1cccc(C(F)(F)F)c1)[C@H]1CCNC1 [Example 9-3, (S)-3-[(S)-2-Isopropoxy-1-(3-trifluoromethylphenoxy)ethyl]pyrrolidine] | ≤ 10 | ≤ 100 |  | 
37 | CC(C)OC[C@H](Oc1cccc(C(F)(F)F)c1)[C@H]1CCNC1 [Example 9-4, (S)-3-[(R)-2-Isopropoxy-1-(3-trifluoromethylphenoxy)ethyl]pyrrolidine] | ≤ 100 | ≤ 100 |  | 
38 | CC(C)OC[C@H](Oc1cccc(Cl)c1Cl)[C@H]1CCNC1 [Example 9-7, (S)-3-[(R)-1-(2,3-Dichlorophenoxy)-2-isopropoxyethyl]pyrrolidine] | ≤ 10 | ≤ 10 |  | 
39 | CC(C)OC[C@@H](Oc1cccc(Cl)c1Cl)[C@H]1CCNC1 [Example 9-8, (S)-3-[(S)-1-(2,3-Dichlorophenoxy)-2-isopropoxyethyl]pyrrolidine] | ≤ 10 | ≤ 10 |  | 
40 | CC(C)OC[C@@H](Oc1cccc(F)c1Cl)[C@H]1CCNC1 [Example 9-11, (S)-3-[(S)-1-(2-Chloro-3-fluorophenoxy)-2-isopropoxyethyl]pyrrolidine] | ≤ 10 | ≤ 10 |  | 
41 | CC(C)OC[C@H](Oc1cccc(F)c1Cl)[C@H]1CCNC1 [Example 9-12, (S)-3-[(R)-1-(2-Chloro-3-fluorophenoxy)-2-isopropoxyethyl]pyrrolidine] | ≤ 10 | ≤ 10 |  | 
42 | Cc1c(Cl)cccc1O[C@H](COC(C)C)[C@H]1CCNC1 [Example 9-15, (S)-3-[(S)-1-(3-Chloro-2-methylphenoxy)-2-isopropoxyethyl]pyrrolidine] | ≤ 10 | ≤ 10 |  | 
43 | Cc1c(Cl)cccc1O[C@@H](COC(C)C)[C@H]1CCNC1 [Example 9-16, (S)-3-[(R)-1-(3-Chloro-2-methylphenoxy)-2-isopropoxyethyl]pyrrolidine] | ≤ 10 | ≤ 10 |  | 
